Experimental findings from patent US20230203021A1, “GLP-1 RECEPTOR AGONIST, PHARMACEUTICAL COMPOSITION COMPRISING SAME, AND METHOD FOR PREPARING SAME” (LG CHEM, LTD., priority 2020, published 2023) are described below.

By EC50 is commonly meant the concentration at which the effect is half-maximal. Higher therefore signals weaker potency.

The target in the assay is T1, hGLP-1R (Homo sapiens, UniProt P43220).
T1 construct: expressed in transfected cells; host or cells: CHO-K1
T1 sequence (P43220 24-463): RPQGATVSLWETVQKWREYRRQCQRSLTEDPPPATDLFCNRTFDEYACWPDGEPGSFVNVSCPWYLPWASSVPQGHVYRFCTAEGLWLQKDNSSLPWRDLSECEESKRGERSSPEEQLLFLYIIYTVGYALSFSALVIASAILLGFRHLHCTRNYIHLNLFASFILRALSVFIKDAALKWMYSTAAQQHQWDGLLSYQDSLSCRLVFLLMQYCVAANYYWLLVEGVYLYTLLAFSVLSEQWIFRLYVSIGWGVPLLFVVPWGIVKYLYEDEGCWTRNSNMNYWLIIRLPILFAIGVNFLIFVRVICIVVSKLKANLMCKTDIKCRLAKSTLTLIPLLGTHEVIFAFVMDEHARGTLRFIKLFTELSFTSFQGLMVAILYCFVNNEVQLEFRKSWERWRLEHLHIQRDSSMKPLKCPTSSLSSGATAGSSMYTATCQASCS
Description: Measurement of activity of GLP-1R agonist (cell-based luciferase assay), CHO-K1/hGLP-1R/CRE-luciferase cell line. The note with it: GLP-1R activity; CHO-K1/hGLP-1R/CRE-luciferase cells, 9 concentrations, four hours of incubation, Bright-Glo luminescence. On the procedure:
15,000 cells of a CHO-K1/hGLP-1R/CRE-luciferase cell line were seeded in a 96-well plate. A medium used herein was Ham’s F-12 Nutrient medium. The cells were incubated for 18 hours in a 5% CO2 incubator which was maintained at 37° C., and then treated with drugs. Each drug dispensed at 9 different concentrations was dissolved in a DMEM/F-12 + 1% FBS medium, and the cell line was treated with each of 100 µl thereof. After four hours of incubation, a Bright-Glo® luciferase assay system kit was used to add 30 µl of an assay reagent per well. A plate was stored at room temperature for 15 minutes, and then luminescence was measured using a SpectraMax M5 reader.
The molecule `O=C(O)c1ccc2nc(Cc3ccc(-c4cccc(OCc5ccc(Cl)cc5F)n4)cc3)n(CC3CCCO3)c2c1` (centres unmarked) [Example 1, 2-(4-(6-((4-chloro-2-fluorobenzyl)oxy)pyridin-2-yl)benzyl)-1-((tetrahydrofuran-2-yl)methyl)-1H-benzo[d]imidazole-6-carboxylic acid] yielded an EC50 of 0.205 nM.

Regarding `O=C(O)c1ccc2nc(Cc3ccc(-c4cccc(OCc5ccc(Cl)cc5F)n4)cc3)n(C[C@@H]3CCO3)c2c1` [Example 2, (S)-2-(4-(6-((4-chloro-2-fluorobenzyl)oxy)pyridin-2-yl)benzyl)-1-(oxetan-2-ylmethyl)-1H-benzo[d]imidazole-6-carboxylic acid], it took 0.007 nM to reach a half-maximal effect (EC50).

`CCn1cncc1Cn1c(Cc2ccc(-c3cccc(OCc4ccc(C#N)cc4F)n3)cc2)nc2ccc(C(=O)O)cc21` [Example 4, 2-(4-(6-((4-cyano-2-fluorobenzyl)oxy)pyridin-2-yl)benzyl)-1-((1-ethyl-1H-imidazol-5-yl)methyl)-1H-benzo[d]imidazole-6-carboxylic acid] displayed an EC50 of 0.015 nM.

`CCn1cncc1Cn1c(Oc2ccc(-c3cccc(OCc4ccc(C#N)cc4F)n3)cc2)nc2ccc(C(=O)O)cc21` [Example 5, 2-(4-(6-((4-cyano-2-fluorobenzyl)oxy)pyridin-2-yl)phenoxy)-1-((1-ethyl-1H-imidazol-5-yl)methyl)-1H-benzo[d]imidazole-6-carboxylic acid] registered an EC50 of 0.016 nM.

With `N#Cc1ccc(COc2cccc(-c3ccc(Oc4nc5ccc(C(=O)O)cc5n4C[C@@H]4CCO4)cc3)n2)c(F)c1` [Example 6, (S)-2-(4-(6-((4-cyano-2-fluorobenzyl)oxy)pyridin-2-yl)phenoxy)-1-(oxetan-2-ylmethyl)-1H-benzo[d]imidazole-6-carboxylic acid], the midpoint of the response, the EC50, lay at 21 nM.

`O=C(O)c1ccc2nc(Oc3ccc(-c4cccc(OCc5ccc(Cl)cc5F)n4)cc3)n(C[C@@H]3CCO3)c2c1` [Example 7, (S)-2-(4-(6-((4-chloro-2-fluorobenzyl)oxy)pyridin-2-yl)phenoxy)-1-(oxetan-2-ylmethyl)-1H-benzo[d]imidazole-6-carboxylic acid] registered an EC50 of 0.066 nM.

With `N#Cc1ccc(COc2cccc(-c3ccc(Oc4nc5ccc(C(=O)O)cc5n4Cc4cnco4)cc3)n2)c(F)c1` [Example 9, 2-(4-(6-((4-cyano-2-fluorobenzyl)oxy)pyridin-2-yl)phenoxy)-1-(oxazol-5-ylmethyl)-1H-benzo[d]imidazole-6-carboxylic acid], a half-maximal response (EC50) required 0.7 nM.

Consider `O=C(O)c1ccc2nc(Cc3ccc(-c4cccc(OCc5ccc(Cl)cc5F)n4)cc3F)n(Cc3cnco3)c2c1` [Example 11, 2-(4-(6-((4-chloro-2-fluorobenzyl)oxy)pyridin-2-yl)-2-fluorobenzyl)-1-(oxazol-5-ylmethyl)-1H-benzo[d]imidazole-6-carboxylic acid], for which the concentration for a half-maximal effect (EC50) turned out to be 0.0746 nM.

`O=C(O)c1ccc2nc(Cc3ccc(-c4cccc(OCc5ccc(Cl)cc5F)n4)cc3)n(C[C@@H]3CCCO3)c2c1` [Example 12, (S)-2-(4-(6-((4-chloro-2-fluorobenzyl)oxy)pyridin-2-yl)benzyl)-1-((tetrahydrofuran-2-yl)methyl)-1H-benzo[d]imidazole-6-carboxylic acid] displayed an EC50 of 0.0706 nM.

With `O=C(O)c1ccc2nc(Cc3ccc(-c4cccc(OCc5ccc(Cl)cc5F)n4)cc3)n(C[C@H]3CCCO3)c2c1` [Example 13, (R)-2-(4-(6-((4-chloro-2-fluorobenzyl)oxy)pyridin-2-yl)benzyl)-1-((tetrahydrofuran-2-yl)methyl)-1H-benzo[d]imidazole-6-carboxylic acid], the EC50 was determined as 2.02 nM.

As for `O=C(O)c1ccc2nc(Cc3ccc(-c4cccc(OCc5ccc(Cl)cc5F)n4)cc3)n(CC3CCCCO3)c2c1` (centres unmarked) [Example 14, 2-(4-(6-((4-chloro-2-fluorobenzyl)oxy)pyridin-2-yl)benzyl)-1-((tetrahydro-2H-pyran-2-yl)methyl)-1H-benzo[d]imidazole-6-carboxylic acid], the EC50 was > 80 nM.

`O=C(O)c1ccc2nc(Cc3ccc(-c4cccc(OCc5ccc(Cl)cc5F)n4)c(F)c3)n(C[C@@H]3CCO3)c2c1` [Example 15, (S)-2-(4-(6-((4-chloro-2-fluorobenzyl)oxy)pyridin-2-yl)-3-fluorobenzyl)-1-(oxetan-2-ylmethyl)-1H-benzo[d]imidazole-6-carboxylic acid] displayed an EC50 of 0.0035 nM.

With `O=C(O)c1ccc2nc(Cc3ccc(-c4cccc(OCc5ccc(C(F)(F)F)cc5F)n4)cc3)n(C[C@@H]3CCO3)c2c1` [Example 16, (S)-2-(4-(6-((2-fluoro-4-(trifluoromethyl)benzyl)oxy)pyridin-2-yl)benzyl)-1-(oxetan-2-ylmethyl)-1H-benzo[d]imidazole-6-carboxylic acid], the EC50 is > 80 nM.

`O=C(O)c1ccc2nc(Oc3ccc(-c4cccc(OCc5ccc(Cl)cc5F)n4)cc3F)n(C[C@@H]3CCO3)c2c1` [Example 17, (S)-2-(4-(6-((4-chloro-2-fluorobenzyl)oxy)pyridin-2-yl)-2-fluorophenoxy)-1-(oxetan-2-ylmethyl)-1H-benzo[d]imidazole-6-carboxylic acid] showed an EC50 of 0.357 nM.

The molecule `O=C(O)c1ccc2nc(Oc3ccc(-c4cccc(OCc5ccc(Cl)cc5F)n4)cc3Cl)n(C[C@@H]3CCO3)c2c1` [Example 18, (S)-2-(2-chloro-4-(6-((4-chloro-2-fluorobenzyl)oxy)pyridin-2-yl)phenoxy)-1-(oxetan-2-ylmethyl)-1H-benzo[d]imidazol-6-carboxylic acid] showed an EC50 of 0.438 nM.

On to `O=C(O)c1ccc2nc(Oc3c(F)cc(-c4cccc(OCc5ccc(Cl)cc5F)n4)cc3F)n(C[C@@H]3CCO3)c2c1` [Example 19, (S)-2-(4-(6-((4-chloro-2-fluorobenzyl)oxy)pyridin-2-yl)-2,6-difluorophenoxy)-1-(oxetan-2-ylmethyl)-1H-benzo[d]imidazole-6-carboxylic acid], for which the half-maximal effective concentration (EC50) was found to be 1.33 nM.

The molecule `O=C(O)c1ccc2nc(Oc3ccc(-c4cccc(OCc5ccc(Cl)cc5F)n4)c(F)c3)n(C[C@@H]3CCO3)c2c1` [Example 20, (S)-2-(4-(6-((4-chloro-2-fluorobenzyl)oxy)pyridin-2-yl)-3-fluorophenoxy)-1-(oxetan-2-ylmethyl)-1H-benzo[d]imidazole-6-carboxylic acid] returned an EC50 of 0.121 nM.

Regarding `O=C(O)c1ccc2nc(Cc3ccc(-c4cccc(OCc5ccc(C(F)(F)F)cc5F)n4)cc3)n(Cc3cnco3)c2c1` [Example 21, 2-(4-(6-((2-fluoro-4-(trifluoromethyl)benzyl)oxy)pyridin-2-yl)benzyl)-1-(oxazol-5-ylmethyl)-1H-benzo[d]imidazole-6-carboxylic acid], the EC50 came to 0.317 nM.

Consider `O=C(O)c1ccc2nc(Cc3ccc(-c4cccc(OCc5ccc(Cl)cc5F)n4)c(Cl)c3)n(Cc3cnco3)c2c1` [Example 22, 2-(3-chloro-4-(6-((4-chloro-2-fluorobenzyl)oxy)pyridin-2-yl)benzyl)-1-(oxazol-5-ylmethyl)-1H-benzo[d]imidazole-6-carboxylic acid], for which the EC50 is 0.635 nM.

For the molecule `O=C(O)c1ccc2nc(Cc3ccc(-c4cccc(OCc5ccc(Cl)cc5F)n4)c(F)c3)n(Cc3cnco3)c2c1` [Example 23, 2-(4-(6-((4-chloro-2-fluorobenzyl)oxy)pyridin-2-yl)-3-fluorobenzyl)-1-(oxazol-5-ylmethyl)-1H-benzo[d]imidazole-6-carboxylic acid], the EC50 turned out to be 0.061 nM.

`CCCn1cnnc1Cn1c(Cc2ccc(-c3cccc(OCc4ccc(Cl)cc4F)n3)cc2)nc2ccc(C(=O)O)cc21` [Example 24, 2-(4-(6-((4-chloro-2-fluorobenzyl)oxy)pyridin-2-yl)benzyl)-1-((4-propyl-4H-1,2,4-triazol-3-yl)methyl)-1H-benzo[d]imidazole-6-carboxylic acid] yielded an EC50 of 0.167 nM.

For `CCCn1cnnc1Cn1c(Cc2ccc(-c3cccc(OCc4ccc(C(F)(F)F)cc4F)n3)cc2)nc2ccc(C(=O)O)cc21` [Example 25, 2-(4-(6-((2-fluoro-4-(trifluoromethyl)benzyl)oxy)pyridin-2-yl)benzyl)-1-((4-propyl-4H-1,2,4-triazol-3-yl)methyl)-1H-benzo[d]imidazole-6-carboxylic acid], the midpoint of the response, the EC50, lay at 0.402 nM.

Take `CCCn1cnnc1Cn1c(Cc2ccc(-c3cccc(OCc4ccc(Cl)cc4F)n3)c(Cl)c2)nc2ccc(C(=O)O)cc21` [Example 26, 2-(3-chloro-4-(6-((4-chloro-2-fluorobenzyl)oxy)pyridin-2-yl)benzyl)-1-((4-propyl-4H-1,2,4-triazol-3-yl)methyl)-1H-benzo[d]imidazole-6-carboxylic acid]: the EC50 turned out to be 0.775 nM.

`CCCn1cnnc1Cn1c(Cc2ccc(-c3cccc(OCc4ccc(Cl)cc4F)n3)c(F)c2)nc2ccc(C(=O)O)cc21` [Example 27, 2-(4-(6-((4-chloro-2-fluorobenzyl)oxy)pyridin-2-yl)-3-fluorobenzyl)-1-((4-propyl-4H-1,2,4-triazol-3-yl)methyl)-1H-benzo[d]imidazole-6-carboxylic acid] yielded a concentration for a half-maximal effect (EC50) of 0.13 nM.

As for `O=C(O)c1ccc2nc(Oc3ccc(-c4cccc(OCc5ccc(Cl)cc5F)n4)cc3)n(CC3CCCO3)c2c1` (centres unmarked) [Example 28, 2-(4-(6-((4-chloro-2-fluorobenzyl)oxy)pyridin-2-yl)phenoxy)-1-((tetrahydrofuran-2-yl)methyl)-1H-benzo[d]imidazole-6-carboxylic acid], the response was half-maximal at 1.12 nM (EC50).

The molecule `O=C(O)c1ccc2nc(Cc3ccc(-c4cccc(OCc5ccc(C(F)(F)F)cc5F)n4)cc3)n(C[C@@H]3CCCO3)c2c1` [Example 29, (S)-2-(4-(6-((2-fluoro-4-(trifluoromethyl)benzyl)oxy)pyridin-2-yl)benzyl)-1-((tetrahydrofuran-2-yl)methyl)-1H-benzo[d]imidazole-6-carboxylic acid] gave an EC50 of 0.208 nM.
